# Test results reported in patent US9586956B2, “Isoquinoline and naphthyridine derivatives” (Genentech, Inc., priority 2012, dated 2017).
# Target: T1, purified human MAP4K4 kinase domain (Homo sapiens, UniProt O95819)
# T1 construct: purified human MAP4K4 kinase domain
# Assay: MAP4K4 Inhibition Assay Protocol No. 1 (Caliper LabChip, moesin-derived peptide phosphorylation)
# Format: biochemical
# Conditions: Assay 1; 1 nM enzyme, 10 uM ATP, 45 min
# Method: The kinase activity of purified human MAP4K4 kinase domain was measured by monitoring the phosphorylation of a peptide substrate derived from moesin protein (Leu-Gly-Arg-Asp-Lys-Tyr-Lys-Thr-Leu-Arg-Gln-Ile-Arg-Gln) fluorescently labeled on the N-terminus with 5-carboxyfluorescein using the Caliper LabChip technology (Caliper Life Sciences, Hopkinton, Mass.). To determine inhibition constants (IC50), compounds were serially diluted in DMSO and added to 10 uL kinase reactions containing 1 nM purified MAP4K4 enzyme, 1 uM peptide substrate, 10 uM ATP, 10 mM MgCl2, 1 mM EGTA, 50 mM Hepes pH 7.2, 1 mM DTT, 0.01% Triton X-100, and 2% DMSO. Reactions were incubated at room temperature in Perkin Elmer Proxiplates for 45 minutes and stopped by the addition of 10 uL of an EDTA-containing solution (50 mM Hepes pH 7.2, 40 mM EDTA, 0.02% Triton X-100). The fraction of phosphorylated peptide was determined as a fraction of total peptide substrate using the Caliper Lab Chip 3000 according to the manufacturer's instructions. IC50 values were determined using the four-parameter non-linear fit model.
# T1 sequence (O95819 25-289 limits assumed): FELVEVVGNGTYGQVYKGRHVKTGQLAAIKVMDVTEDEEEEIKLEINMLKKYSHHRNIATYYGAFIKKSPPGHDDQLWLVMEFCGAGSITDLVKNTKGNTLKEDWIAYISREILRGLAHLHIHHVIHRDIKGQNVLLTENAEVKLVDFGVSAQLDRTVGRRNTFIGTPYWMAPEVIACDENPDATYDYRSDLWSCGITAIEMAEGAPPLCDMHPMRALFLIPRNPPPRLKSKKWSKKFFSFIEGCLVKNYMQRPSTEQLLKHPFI
row,Structure (SMILES),IC50 [µM]
1,"COc1ccccc1CNC(=O)c1cnc(N)c2cc(-c3cccc(F)c3)ccc12 [Example 90, 1-amino-7-(3-fluorophenyl)-N-[(2-methoxyphenyl)methyl]isoquinoline-4-carboxamide]",0.141
2,"NC(=O)C1CCN(C(=O)c2cnc(N)c3cc(-c4cccc(F)c4)ccc23)CC1 [Example 50, 1-[1-amino-7-(3-fluorophenyl)isoquinoline-4-carbonyl] piperidine-4-carboxamide]",1.5
3,"Nc1ncc(C(=O)NCCN2CCC(O)CC2)c2ccc(-c3cccc(F)c3)cc12 [Example 69, 1-amino-7-(3-fluorophenyl)-N-[2-(4-hydroxy-1-piperidyl)ethyl] isoquinoline-4-carboxamide]",0.35
4,"Nc1ncc(C(=O)NC2CCCC2)c2ccc(-c3cccc(F)c3)cc12 [Example 98, 1-amino-N-cyclopentyl-7-(3-fluorophenyl) isoquinoline-4-carboxamide]",0.0459
5,"Nc1ncc(C(=O)NCCN2CCCCC2=O)c2ccc(-c3cccc(F)c3)cc12 [Example 58, 1-amino-7-(3-fluorophenyl)-N-[2-(2-oxo-1-piperidyl)ethyl]isoquinoline-4-carboxamide]",0.146
6,"CC(=O)N1CCC(NC(=O)c2cnc(N)c3cc(-c4cccc(F)c4)ccc23)CC1 [Example 57, N-(1-acetyl-4-piperidyl)-1-amino-7-(3-fluorophenyl) isoquinoline-4-carboxamide]",0.102
7,"Nc1ncc(C(=O)O)c2ccc(-c3cccc(F)c3)cc12 [Example 123, 1-amino-7-(3-fluorophenyl) isoquinoline-4-carboxylic acid]",2.1
8,"Nc1ncc(C(=O)NCc2ccncc2)c2ccc(-c3cccc(F)c3)cc12 [Example 93, 1-amino-7-(3-fluorophenyl)-N-(4-pyridylmethyl) isoquinoline-4-carboxamide]",0.0645
9,"Nc1ncc(C(=O)Nc2ccccc2)c2ccc(-c3cccc(F)c3)cc12 [Example 62, 1-amino-7-(3-fluorophenyl)-N-phenyl-isoquinoline-4-carboxamide]",0.0338
10,"CCC(=O)N1CC(NC(=O)c2cnc(N)c3cc(-c4cccc(F)c4)ccc23)C1 [Example 125, 1-amino-7-(3-fluorophenyl)-N-(1-propanoylazetidin-3-yl)isoquinoline-4-carboxamide]",0.0503
11,"CNC(=O)C1CN(C(=O)c2cnc(N)c3cc(-c4cccc(F)c4)ccc23)CCO1 (centres unmarked) [Example 60, 4-[1-amino-7-(3-fluorophenyl)isoquinoline-4-carbonyl]-N-methyl-morpholine-2-carboxamide]",0.238
12,"NC(=O)c1cnc(N)c2cc(-c3cccc(F)c3)ccc12 [Example 66, 1-amino-7-(3-fluorophenyl) isoquinoline-4-carboxamide]",0.0327
13,"Cc1cc(NC(=O)c2cnc(N)c3cc(-c4cccc(F)c4)ccc23)ccn1 [Example 95, 1-amino-7-(3-fluorophenyl)-N-(2-methyl-4-pyridyl) isoquinoline-4-carboxamide]",0.0391
14,"CN(C)C(=O)c1nc(CNC(=O)c2cnc(N)c3cc(-c4cccc(F)c4)ccc23)no1 [Example 1, 3-[[[1-amino-7-(3-fluorophenyl)isoquinoline-4-carbonyl]amino]methyl]-N,N-dimethyl-1,2,4-oxadiazole-5-carboxamide]",0.122
15,"Nc1ncc(C(=O)NCc2ccccn2)c2ccc(-c3cccc(F)c3)cc12 [Example 96, 1-amino-7-(3-fluorophenyl)-N-(2-pyridylmethyl) isoquinoline-4-carboxamide]",0.179
16,"CCNC(=O)c1cnc(N)c2cc(-c3cccc(F)c3)ccc12 [Example 99, 1-amino-N-ethyl-7-(3-fluorophenyl)isoquinoline-4-carboxamide]",0.0257
17,"Nc1ncc(C(=O)NCCC(=O)N2CCOCC2)c2ccc(-c3cccc(F)c3)cc12 [Example 110, 1-amino-7-(3-fluorophenyl)-N-(3-morpholino-3-oxo-propyl)isoquinoline-4-carboxamide]",0.403
